Data: ChEMBL document CHEMBL5233229, “Recent advances in the development of ubiquitin-specific-processing protease 7 (USP7) inhibitors” (Eur J Med Chem, 2020)
pIC50: −log10 of the molar value.

Assays:
[1] = target: T1, Ubiquitin carboxyl-terminal hydrolase 7 (Homo sapiens, UniProt Q93009); assay: Inhibition of human USP7 using ubiquitin-Rh110 as substrate incubated for 30 mins by Fluorometric plate reader analysis
[2] = target: T2, Ubiquitin carboxyl-terminal hydrolase 47 (Homo sapiens, UniProt Q96K76); assay: Inhibition of USP47 (unknown origin)
T2 sequence (Q96K76 whole entry): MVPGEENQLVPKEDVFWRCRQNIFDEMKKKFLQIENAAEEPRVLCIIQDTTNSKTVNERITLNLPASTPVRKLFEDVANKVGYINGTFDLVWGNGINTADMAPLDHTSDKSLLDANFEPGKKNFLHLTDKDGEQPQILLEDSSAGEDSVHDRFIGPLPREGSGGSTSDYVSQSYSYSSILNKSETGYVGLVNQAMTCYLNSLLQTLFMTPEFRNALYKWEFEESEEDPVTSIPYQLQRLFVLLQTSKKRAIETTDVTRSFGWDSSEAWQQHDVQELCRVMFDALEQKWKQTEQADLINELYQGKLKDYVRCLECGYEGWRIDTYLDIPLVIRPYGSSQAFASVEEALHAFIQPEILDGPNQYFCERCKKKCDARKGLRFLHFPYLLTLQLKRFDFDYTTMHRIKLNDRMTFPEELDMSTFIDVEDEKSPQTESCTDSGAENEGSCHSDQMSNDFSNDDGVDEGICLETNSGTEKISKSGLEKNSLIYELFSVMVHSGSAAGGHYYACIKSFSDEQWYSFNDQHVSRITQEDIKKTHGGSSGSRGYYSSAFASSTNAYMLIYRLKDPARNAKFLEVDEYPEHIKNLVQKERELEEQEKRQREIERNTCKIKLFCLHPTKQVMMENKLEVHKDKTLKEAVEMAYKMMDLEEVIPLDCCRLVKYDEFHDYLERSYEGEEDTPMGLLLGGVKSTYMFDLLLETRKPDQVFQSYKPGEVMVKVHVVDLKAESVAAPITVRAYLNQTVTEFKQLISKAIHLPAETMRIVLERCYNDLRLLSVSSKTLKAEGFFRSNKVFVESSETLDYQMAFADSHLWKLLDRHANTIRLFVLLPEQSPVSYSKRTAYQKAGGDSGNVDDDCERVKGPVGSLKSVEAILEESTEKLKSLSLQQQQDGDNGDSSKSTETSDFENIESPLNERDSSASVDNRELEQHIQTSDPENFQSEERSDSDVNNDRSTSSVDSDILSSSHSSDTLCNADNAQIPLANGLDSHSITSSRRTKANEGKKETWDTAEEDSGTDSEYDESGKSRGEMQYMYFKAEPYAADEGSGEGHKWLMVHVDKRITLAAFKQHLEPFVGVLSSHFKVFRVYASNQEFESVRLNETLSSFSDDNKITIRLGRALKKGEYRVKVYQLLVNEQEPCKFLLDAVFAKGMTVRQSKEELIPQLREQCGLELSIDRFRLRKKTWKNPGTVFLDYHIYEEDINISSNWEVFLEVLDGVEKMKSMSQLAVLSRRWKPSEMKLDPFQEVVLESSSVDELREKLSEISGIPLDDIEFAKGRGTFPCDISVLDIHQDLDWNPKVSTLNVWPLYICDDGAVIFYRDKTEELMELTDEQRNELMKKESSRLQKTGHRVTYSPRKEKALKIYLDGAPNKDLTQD

[3] = target: T1, Ubiquitin carboxyl-terminal hydrolase 7; assay: Inhibition of USP7 (unknown origin) by Ub-PLA2 assay
HCT-116 = assay: Anticancer activity against human HCT-116 cells assessed as cell growth inhibition incubated for 6 days by MTT assay; assay type: functional; conditions: HCT-116, 144 h, time 6 day, read-out: LD50 (the source's name)
[4] = Inhibition of USP2a (unknown origin); set-up: species or system Homo sapiens
[5] = target: T1, Ubiquitin carboxyl-terminal hydrolase 7; assay: Inhibition of human USP7 using UbA10 as substrate incubated for 10 mins by TR-FRET assay
[6] = target: T1, Ubiquitin carboxyl-terminal hydrolase 7; assay: Inhibition of human USP7 using ubiquitin-Rho as substrate incubated for 1 hrs
[7] = target: T1, Ubiquitin carboxyl-terminal hydrolase 7; assay: Inhibition of human USP7 using Ub-AMC as substrate
[8] = target: T3, Ubiquitin carboxyl-terminal hydrolase 8 (Homo sapiens, UniProt P40818); assay: Inhibition of human USP8 using Ub-AMC as substrate
T3 sequence (P40818 whole entry): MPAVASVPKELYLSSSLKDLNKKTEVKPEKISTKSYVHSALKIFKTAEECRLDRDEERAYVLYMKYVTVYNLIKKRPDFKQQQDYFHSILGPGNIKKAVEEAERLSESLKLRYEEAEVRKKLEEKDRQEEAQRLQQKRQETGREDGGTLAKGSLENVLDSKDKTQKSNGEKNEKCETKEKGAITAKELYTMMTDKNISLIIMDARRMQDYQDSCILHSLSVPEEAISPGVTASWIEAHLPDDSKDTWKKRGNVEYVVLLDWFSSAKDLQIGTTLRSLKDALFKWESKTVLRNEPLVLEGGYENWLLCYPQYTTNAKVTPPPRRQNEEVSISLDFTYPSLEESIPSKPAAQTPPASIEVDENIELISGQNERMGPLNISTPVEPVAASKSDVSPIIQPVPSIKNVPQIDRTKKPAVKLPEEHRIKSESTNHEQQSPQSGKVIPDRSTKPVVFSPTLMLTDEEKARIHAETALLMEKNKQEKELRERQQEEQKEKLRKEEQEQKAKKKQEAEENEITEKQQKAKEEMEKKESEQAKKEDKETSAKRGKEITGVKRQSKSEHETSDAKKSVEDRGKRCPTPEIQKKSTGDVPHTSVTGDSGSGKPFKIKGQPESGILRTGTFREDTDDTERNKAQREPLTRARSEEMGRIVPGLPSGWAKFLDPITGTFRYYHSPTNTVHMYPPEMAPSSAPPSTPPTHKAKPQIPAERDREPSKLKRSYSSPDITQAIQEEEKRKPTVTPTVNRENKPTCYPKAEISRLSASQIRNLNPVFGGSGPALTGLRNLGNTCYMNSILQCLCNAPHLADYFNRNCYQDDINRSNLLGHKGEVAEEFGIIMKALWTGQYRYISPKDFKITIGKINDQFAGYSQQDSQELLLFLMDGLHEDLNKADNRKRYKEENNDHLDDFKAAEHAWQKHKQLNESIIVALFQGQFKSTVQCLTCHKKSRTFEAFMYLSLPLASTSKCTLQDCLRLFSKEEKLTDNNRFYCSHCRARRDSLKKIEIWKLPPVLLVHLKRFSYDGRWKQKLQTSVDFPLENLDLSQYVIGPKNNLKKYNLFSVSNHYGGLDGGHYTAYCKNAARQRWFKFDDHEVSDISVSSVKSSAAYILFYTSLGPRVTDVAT

T1 sequence (Q93009 whole entry): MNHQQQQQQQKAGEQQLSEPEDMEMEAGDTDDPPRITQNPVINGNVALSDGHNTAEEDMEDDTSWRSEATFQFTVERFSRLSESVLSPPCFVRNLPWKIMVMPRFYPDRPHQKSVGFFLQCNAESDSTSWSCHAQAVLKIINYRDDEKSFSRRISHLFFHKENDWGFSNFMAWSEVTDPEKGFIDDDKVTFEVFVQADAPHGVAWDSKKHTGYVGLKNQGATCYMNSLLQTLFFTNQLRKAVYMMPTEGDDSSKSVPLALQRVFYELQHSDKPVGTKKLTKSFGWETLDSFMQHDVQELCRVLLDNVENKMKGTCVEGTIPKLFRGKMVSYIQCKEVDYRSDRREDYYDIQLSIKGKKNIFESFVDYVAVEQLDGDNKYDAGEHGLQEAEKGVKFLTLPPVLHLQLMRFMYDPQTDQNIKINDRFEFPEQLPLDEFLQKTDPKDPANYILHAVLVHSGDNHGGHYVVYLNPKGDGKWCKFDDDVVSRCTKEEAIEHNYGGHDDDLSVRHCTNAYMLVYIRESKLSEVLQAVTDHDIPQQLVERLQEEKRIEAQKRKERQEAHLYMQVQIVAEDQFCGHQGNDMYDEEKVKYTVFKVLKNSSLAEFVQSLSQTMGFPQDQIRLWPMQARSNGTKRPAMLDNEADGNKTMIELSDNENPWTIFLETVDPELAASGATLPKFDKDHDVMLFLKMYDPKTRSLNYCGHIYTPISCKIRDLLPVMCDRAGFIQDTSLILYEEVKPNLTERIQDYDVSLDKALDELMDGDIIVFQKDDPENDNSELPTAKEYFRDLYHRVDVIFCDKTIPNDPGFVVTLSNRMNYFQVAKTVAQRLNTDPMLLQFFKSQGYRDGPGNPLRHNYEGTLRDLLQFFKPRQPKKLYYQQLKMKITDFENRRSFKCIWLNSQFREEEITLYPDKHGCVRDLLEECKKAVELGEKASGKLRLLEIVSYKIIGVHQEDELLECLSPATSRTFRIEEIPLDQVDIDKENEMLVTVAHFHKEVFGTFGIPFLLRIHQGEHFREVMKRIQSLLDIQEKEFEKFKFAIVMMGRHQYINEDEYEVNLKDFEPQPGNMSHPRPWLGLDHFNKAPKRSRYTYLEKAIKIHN

Compound C[C@@]12CCCc3coc(c31)C(=O)c1cc3c4c(cc(OS(=O)(=O)O)c3cc12)[C@@]12CCC[C@@]3(C)c5cc6c(OS(=O)(=O)O)ccc(O)c6cc5C(=O)[C@@](O)(OC1)[C@@]23O4 has a pIC50 [1] of under 5.30.
N#Cc1nc2c(nc1C#N)-c1ccccc1C2=O showed a pIC50 [2] of 5.46.
For CCCCc1cc([N+](=O)[O-])c(Sc2ccc(Cl)cc2Cl)s1, the pIC50 [3] was 4.86.
For C[C@@]12CCCc3coc(c31)Cc1cc3c(cc12)C(=O)C(C1=CC(=O)c2cc4c(cc2C1=O)C(=O)c1occ2c1[C@@]4(C)CCC2)=CC3=O, the pIC50 [1] was 6.33.
With C[C@H](CC(N)=O)[C@H]1CC[C@H]2[C@@H]3CC[C@@H]4C[C@H](O)CC[C@]4(C)[C@H]3CC[C@]12C the CC50 (HCT-116) was 24.5 µM and the pIC50 [4] was 4.55.
In the case of CCc1c(-c2ccc(O)cc2)cnc(N)c1-c1ccc2cn[nH]c2c1, the pIC50 [5] was 6.21.
For COC(=O)C[C@@H](C)[C@H]1CC[C@H]2[C@@H]3CC[C@@H]4C[C@H](O)CC[C@]4(C)[C@H]3CC[C@]12C, the CC50 (HCT-116) was 20.5 µM and the pIC50 [4] was under 4.30.
CCc1c(-c2ccc(C(=O)N(C)C)cc2)cnc(N)c1-c1ccc(O)cc1 gave a pIC50 [6] of 4.12.
With CCc1c(-c2ccc(O)cc2)cnc(N)c1-c1cccc(C)c1 the pIC50 [6] was under 4.20.
N#Cc1nc2c(nc1C#N)C1(OCCO1)c1ccccc1-2 gave a pIC50 [7] of under 4.00 and a pIC50 [2] of under 4.00.
With CCc1c(-c2ccc(O)cc2)cnc(N)c1-c1ccc(S(C)(=O)=O)cc1 the pIC50 [6] was under 4.20.
Compound CC(=O)c1cc([N+](=O)[O-])c(Sc2cc(Cl)cc(Cl)c2)s1 has a pIC50 [3] of 5.19.
C[C@@]12CCCc3coc(c31)C(=O)c1cc3c(cc12)CC1=C2N(CCS1(=O)=O)[C@@H](O)C[C@]23O showed a pIC50 [1] of under 5.30.
With C[C@@]12CCC(=O)c3coc(c31)C(=O)c1cc3c(cc12)C(=O)C=CC3=O [HELENAQUINONE] the pIC50 [1] was 5.89.
In the case of C[C@@]12CCCc3coc(c31)C(=O)c1cc3c(cc12)C(=O)C=C([C@]12CCC[C@@]4(C)c5cc6c(OS(=O)(=O)O)ccc(O)c6cc5C(=O)O[C@]14C(=O)OC2)C3=O, the pIC50 [1] was 5.70.
CC(=O)O[C@@H]1CC[C@@]2(C)[C@H](CC[C@@H]3[C@@H]2CC[C@]2(C)[C@@H]([C@H](C)CC(=O)O)CC[C@@H]32)C1 gave a CC50 (HCT-116) of 23.2 µM and a pIC50 [4] of 5.24.
In the case of CCOc1nc2c(nc1C#N)C(=O)c1ccccc1-2, the pIC50 [7] was under 4.00 and the pIC50 [8] was under 4.00.
CC(O)c1cc([N+](=O)[O-])c(Sc2ccc(Cl)cc2Cl)s1 (stereo not given) gave a pIC50 [3] of 4.70.
With N#CNc1nc2c(nc1C#N)C(=O)c1ccccc1-2 the pIC50 [2] was under 4.00.
In the case of C[C@@]12CCCc3coc(c31)C(=O)c1cc3c(cc12)C(=O)C=C(C1=CC(=O)c2cc4c(cc2C1=O)C(=O)c1occ2c1[C@@]4(C)CCC2)C3=O, the pIC50 [1] was 6.46.
CCO/C(O)=C(\C#N)c1nc2c(nc1C#N)C(=O)c1ccccc1-2 showed a pIC50 [7] of under 4.00 and a pIC50 [8] of under 4.00.
CC(=O)c1cc([N+](=O)[O-])c(Sc2cccc(Cl)c2)s1 gave a pIC50 [3] of 5.15.
C[C@H](CC(=O)NCC(=O)O)[C@H]1CC[C@H]2[C@@H]3CC[C@@H]4C[C@H](O)CC[C@]4(C)[C@H]3CC[C@]12C gave a CC50 (HCT-116) of over 100 µM and a pIC50 [4] of under 4.30.
